# Measurements from ChEMBL document CHEMBL4196112, “Design of Selective sPLA2-X Inhibitor (-)-2-{2-[Carbamoyl-6-(trifluoromethoxy)-1H-indol-1-yl]pyridine-2-yl}propanoic Acid” (ACS Med Chem Lett, 2018).
# pIC50: −log10 of the molar value. The source made the active and inactive calls. No cut-off for these calls is given here.
# Assays:
# [1] = target: T1, Group 10 secretory phospholipase A2 (Homo sapiens, UniProt O15496); assay: Inhibition of recombinant human sPLA2-10 using human HDL as substrate pretreated for 20 mins followed by substrate addition and measured after 60 mins by NEFA based assay
# T1 sequence (O15496 whole entry): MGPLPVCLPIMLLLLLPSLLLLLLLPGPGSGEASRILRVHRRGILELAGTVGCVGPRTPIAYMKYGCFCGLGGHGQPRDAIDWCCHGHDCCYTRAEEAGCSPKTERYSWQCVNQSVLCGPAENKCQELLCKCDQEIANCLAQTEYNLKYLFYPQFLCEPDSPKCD
# [2] = target: T1, Group 10 secretory phospholipase A2; assay: Inhibition of sPLA2-10 (unknown origin) using 1-palmitoyl-2-oleoyl-sn-glycero-3-phosphocholine as substrate pretreated for 20 mins followed by substrate addition and measured after 60 mins by NEFA based assay
# Phospholipase A2 group V = target: T2, Phospholipase A2 group V (Homo sapiens, UniProt P39877); assay: Inhibition of sPLA2-5 (unknown origin) using 1-palmitoyl-2-oleoyl-sn-glycero-3-phosphocholine as substrate pretreated for 20 mins followed by substrate addition and measured after 60 mins by NEFA based assay
# T2 sequence (P39877 whole entry): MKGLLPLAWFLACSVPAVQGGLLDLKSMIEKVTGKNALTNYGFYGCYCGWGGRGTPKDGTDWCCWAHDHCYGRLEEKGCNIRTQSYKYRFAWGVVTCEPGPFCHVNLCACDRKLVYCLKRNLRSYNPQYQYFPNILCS
# [3] = target: T3, Phospholipase A2, membrane associated (Homo sapiens, UniProt P14555); assay: Inhibition of sPLA2-2A (unknown origin) using 1-palmitoyl-2-oleoyl-sn-glycero-3-phosphocholine as substrate pretreated for 20 mins followed by substrate addition and measured after 60 mins by NEFA based assay
# T3 sequence (P14555 whole entry): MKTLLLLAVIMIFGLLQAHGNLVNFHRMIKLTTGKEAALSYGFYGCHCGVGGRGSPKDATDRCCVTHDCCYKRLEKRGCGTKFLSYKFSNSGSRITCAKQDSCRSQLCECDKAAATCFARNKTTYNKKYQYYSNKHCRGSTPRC
# [4] = target: T4, Phospholipase A2 group V (Homo sapiens) (UniProt P39877); assay: Inhibition of sPLA2-5 (unknown origin) at 10 uM using 1-palmitoyl-2-oleoyl-sn-glycero-3-phosphocholine as substrate pretreated for 20 mins followed by substrate addition and measured after 60 mins by NEFA based assay
# T4 sequence (whole entry): T2 sequence (P39877 whole entry)
# [5] = target: Phospholipase A2, membrane associated (Homo sapiens) (UniProt P14555); assay: Inhibition of sPLA2-2A (unknown origin) at 10 uM using 1-palmitoyl-2-oleoyl-sn-glycero-3-phosphocholine as substrate pretreated for 20 mins followed by substrate addition and measured after 60 mins by NEFA based assay
# [6] = Intrinsic clearance in human hepatocytes assessed per million cells; format: ADME, cell-based, Hepatocyte; conditions: read-out: CLH
# Mus musculus [7] = assay: Unbound clearance in C57Bl/6J mouse administered iv or po; format: ADME, organism-based; conditions: in vivo
# Mus musculus [8] = assay: Anti-atherosclerosis activity in ApoE knockout pro-atherogenic western diet-induced Tac mouse carotid artery ligation model of atherosclerosis assessed as reduction in coronary flow reserve at 75 to 150 umol/kg/day mixed with food measured for 3 weeks by doppler echocardiography; format: functional, organism-based
# Mus musculus [9] = assay: Anti-atherosclerosis activity in ApoE knockout pro-atherogenic western diet-induced Tac mouse carotid artery ligation model of atherosclerosis assessed as reduction in heart rate at 75 to 150 umol/kg/day mixed with food measured for 3 weeks by doppler echocardiography; format: functional, organism-based
# Mus musculus [10] = assay: Anti-atherosclerosis activity in ApoE knockout pro-atherogenic western diet-induced Tac mouse carotid artery ligation model of atherosclerosis assessed as reduction in plasma esterified cholesterol levels at 75 umol/kg/day mixed with food measured for 3 weeks; format: functional, organism-based
# [11] = target: Group 10 secretory phospholipase A2 (Homo sapiens) (UniProt O15496)
# Mus musculus [12] = assay: Anti-atherosclerosis activity in ApoE knockout pro-atherogenic western diet-induced Tac mouse carotid artery ligation model of atherosclerosis assessed as reduction in plasma free fatty acid levels at 75 umol/kg/day mixed with food measured for 3 weeks; format: functional, organism-based
# Homo sapiens [13] = species on record: Homo sapiens; assay: Selectivity ratio of IC50 for sPLA2-2A (unknown origin) to IC50 for sPLA2-10 (unknown origin)
# Mus musculus [14] = assay: Anti-atherosclerosis activity in ApoE knockout pro-atherogenic western diet-induced Tac mouse carotid artery ligation model of atherosclerosis assessed as reduction in plasma esterified cholesterol levels at 150 umol/kg/day mixed with food measured for 3 weeks; format: functional, organism-based
# Mus musculus [15] = assay: Anti-atherosclerosis activity in ApoE knockout pro-atherogenic western diet-induced Tac mouse carotid artery ligation model of atherosclerosis assessed as reduction in plasma free cholesterol levels at 75 umol/kg/day mixed with food measured for 3 weeks; format: functional, organism-based
# Mus musculus [16] = assay: Anti-atherosclerosis activity in ApoE knockout pro-atherogenic western diet-induced Tac mouse carotid artery ligation model of atherosclerosis assessed as reduction in plasma lipoprotein-associated cholesterol fraction levels at 150 umol/kg/day mixed with food measured for 3 weeks; format: functional, organism-based
# Mus musculus [17] = assay: Anti-atherosclerosis activity in ApoE knockout pro-atherogenic western diet-induced Tac mouse carotid artery ligation model of atherosclerosis assessed as reduction in plasma triglyceride levels at 75 umol/kg/day mixed with food measured for 3 weeks; format: functional, organism-based
# Mus musculus [18] = assay: Anti-atherosclerosis activity in ApoE knockout pro-atherogenic western diet-induced Tac mouse carotid artery ligation model of atherosclerosis assessed as reduction in neointima and media formation at 75 to 150 umol/kg/day mixed with food measured for 3 weeks; format: functional, organism-based
# Mus musculus [19] = assay: Anti-atherosclerosis activity in ApoE knockout pro-atherogenic western diet-induced Tac mouse carotid artery ligation model of atherosclerosis assessed as reduction in thickness of artery wall at 75 to 150 umol/kg/day mixed with food measured for 3 weeks by ultrasound biomicroscopy; format: functional, organism-based
# Mus musculus [20] = assay: Anti-atherosclerosis activity in ApoE knockout pro-atherogenic western diet-induced Tac mouse carotid artery ligation model of atherosclerosis assessed as reduction in plasma free fatty acid levels at 150 umol/kg/day mixed with food measured for 3 weeks; format: functional, organism-based
# Mus musculus [21] = assay: Anti-atherosclerosis activity in ApoE knockout pro-atherogenic western diet-induced Tac mouse carotid artery ligation model of atherosclerosis assessed as reduction in plasma triglyceride levels at 150 umol/kg/day mixed with food measured for 3 weeks; format: functional, organism-based
# Homo sapiens [22] = species on record: Homo sapiens; assay: Selectivity ratio of IC50 for sPLA2-5 (unknown origin) to IC50 for sPLA2-10 (unknown origin)
# Mus musculus [23] = assay: Anti-atherosclerosis activity in ApoE knockout pro-atherogenic western diet-induced Tac mouse carotid artery ligation model of atherosclerosis assessed as reduction in plasma free cholesterol levels at 150 umol/kg/day mixed with food measured for 3 weeks; format: functional, organism-based
# Mus musculus [24] = assay: Anti-atherosclerosis activity in ApoE knockout pro-atherogenic western diet-induced Tac mouse carotid artery ligation model of atherosclerosis assessed as reduction in plasma lipoprotein-associated cholesterol fraction levels at 75 umol/kg/day mixed with food measured for 3 weeks; format: functional, organism-based
# Mus musculus [25] = assay: Anti-atherosclerosis activity in ApoE knockout pro-atherogenic western diet-induced Tac mouse carotid artery ligation model of atherosclerosis assessed as increase in lumen thickness at 75 to 150 umol/kg/day mixed with food measured for 3 weeks by ultrasound biomicroscopy; format: functional, organism-based
# [26] = target: Group 10 secretory phospholipase A2 (Mus musculus) (UniProt Q9QXX3); assay: Inhibition of mouse sPLA2-10
# Sequence of Group 10 secretory phospholipase A2 (Mus musculus) (Q9QXX3 whole entry): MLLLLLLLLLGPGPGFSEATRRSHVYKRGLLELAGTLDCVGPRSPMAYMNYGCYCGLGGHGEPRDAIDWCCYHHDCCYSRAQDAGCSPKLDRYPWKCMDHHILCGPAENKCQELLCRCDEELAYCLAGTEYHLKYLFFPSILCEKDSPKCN
# [27] = Lipophilicity, log D of compound at pH 7.4; conditions: buffer
Structure (SMILES),pIC50 [1],pIC50 [2],pIC50 (Phospholipase A2 group V),pIC50 [3],other results
NC(=O)c1cc2ccc(OC(F)(F)F)cc2n1-c1ccc(=O)n(CCC(=O)O)c1,–,5.32,–,–,inhibition [4]: inactive; inhibition [5]: inactive
CC(C)(Cc1cccc(-n2c(C(N)=O)cc3ccc(OC(F)(F)F)cc32)n1)C(=O)O,–,6.49,< 5.00,5.51,–
NC(=O)c1cc2ccc(OC(F)(F)F)cc2n1-c1cccc(CCC(=O)O)c1,6.51,–,–,–,hepatocyte CLint [6]: 9.33 µL/min/1e6 cells; CL free (Mus musculus [7]): 1446 mL/min/kg
"CC(CC(=O)O)c1cccc(-n2c(C(N)=O)cc3ccc(OC(F)(F)F)cc32)n1 (single isomer, unassigned; (+)) [listing 1 of 2 here]",–,–,–,–,inhibition [4]: inactive
NC(=O)c1cc2ccc(OC(F)(F)F)cc2n1-c1ccn(CCC(=O)O)n1,–,5.32,–,5.40,inhibition [4]: inactive
NC(=O)c1cc2ccc(OC(F)(F)F)cc2n1-c1cnn(CCC(=O)O)c1,–,< 5.00,5.57,5.35,–
NC(=O)c1cc2ccc(OC(F)(F)F)cc2n1-c1ccc(CCC(=O)O)o1,–,6.37,5.23,5.72,–
CC(CC(=O)O)c1cccc(-n2c(C(N)=O)cc3ccc(OC(F)(F)F)cc32)n1 (stereo in doubt; (-)-17),–,–,–,–,Activity (Mus musculus [8]): inactive; Activity (Mus musculus [9]): inactive; Activity (Mus musculus [10]): inactive; IC90 [11]: 362 nM; Activity (Mus musculus [12]): inactive; Ratio IC50 (Homo sapiens [13]): 45; Activity (Mus musculus [14]): Active; Activity (Mus musculus [15]): inactive; Activity (Mus musculus [16]): Active; Activity (Mus musculus [17]): inactive; Activity (Mus musculus [18]): inactive; Activity (Mus musculus [19]): inactive; Activity (Mus musculus [20]): Active; Activity (Mus musculus [21]): Active; Ratio IC50 (Homo sapiens [22]): 390; Activity (Mus musculus [23]): Active; Activity (Mus musculus [24]): inactive; Activity (Mus musculus [25]): inactive; IC90 [26]: 820 nM
"CC(CC(=O)O)c1cccc(-n2c(C(N)=O)cc3ccc(OC(F)(F)F)cc32)n1 (single isomer, unassigned; (+)) [listing 2 of 2 here]",–,6.30,–,5.42,–
CCC(Cc1cccc(-n2c(C(N)=O)cc3ccc(OC(F)(F)F)cc32)n1)C(=O)O (stereo in doubt),–,6.03,< 5.00,6.08,–
CC(Cc1cccc(-n2c(C(N)=O)cc3ccc(OC(F)(F)F)cc32)n1)C(=O)O (stereo in doubt),–,6.24,< 5.00,5.77,–
COC(Cc1cccc(-n2c(C(N)=O)cc3ccc(OC(F)(F)F)cc32)c1)C(=O)O (stereo in doubt) [listing 2 of 2 here],–,–,–,–,inhibition [4]: inactive
CC(Cc1ccnc(-n2c(C(N)=O)cc3ccc(OC(F)(F)F)cc32)c1)C(=O)O (stereo in doubt),5.47,6.44,5.80,6.47,–

# Continued, in another order:
pIC50 [1],pIC50 [2],pIC50 (Phospholipase A2 group V),pIC50 [3],Structure (SMILES),other results
6.08,6.85,6.74,7.36,CC(Cc1ccnc(-n2c(C(N)=O)cc3ccc(OC(F)(F)F)cc32)c1)C(=O)O (stereo in doubt; 13),–
5.55,7.00,< 5.00,6.09,CC(Cc1cccc(-n2c(C(N)=O)cc3ccc(OC(F)(F)F)cc32)c1)C(=O)O (stereo in doubt),–
6.60,7.54,5.64,6.33,NC(=O)c1cc2ccc(OC(F)(F)F)cc2n1-c1cccc(CCC(=O)O)n1,hepatocyte CLint [6]: < 5 µL/min/1e6 cells
6.85,7.41,5.68,6.85,COC(Cc1cccc(-n2c(C(N)=O)cc3ccc(OC(F)(F)F)cc32)c1)C(=O)O (stereo in doubt; 11),–
5.80,6.62,5.68,5.92,NC(=O)c1cc2ccc(OC(F)(F)F)cc2n1-c1ccnc(CCC(=O)O)c1,hepatocyte CLint [6]: < 5 µL/min/1e6 cells
6.19,6.96,6.14,6.54,NC(=O)c1cc2ccc(OC(F)(F)F)cc2n1-c1cc(CCC(=O)O)ccn1,hepatocyte CLint [6]: < 5 µL/min/1e6 cells
–,6.77,–,5.57,COC(Cc1cccc(-n2c(C(N)=O)cc3ccc(OC(F)(F)F)cc32)c1)C(=O)O (stereo in doubt) [listing 1 of 2 here],–
6.46,7.49,6.29,7.24,CC(Cc1cccc(-n2c(C(N)=O)cc3ccc(OC(F)(F)F)cc32)c1)C(=O)O (stereo in doubt; 10),–
6.48,6.77,5.72,6.77,CCC(Cc1cccc(-n2c(C(N)=O)cc3ccc(OC(F)(F)F)cc32)n1)C(=O)O (stereo in doubt; 15),–
–,6.70,5.07,5.41,C[C@H](CC(=O)O)c1cccc(-n2c(C(N)=O)cc3ccc(OC(F)(F)F)cc32)c1,–
6.96,7.82,5.29,6.09,C[C@@H](CC(=O)O)c1cccc(-n2c(C(N)=O)cc3ccc(OC(F)(F)F)cc32)c1,Ratio IC50 (Homo sapiens [13]): 60; Ratio IC50 (Homo sapiens [22]): 360; logD [27]: 1.3; CL free (Mus musculus [7]): 1025 mL/min/kg
6.60,7.19,6.29,7.04,CC(Cc1cccc(-n2c(C(N)=O)cc3ccc(OC(F)(F)F)cc32)n1)C(=O)O (stereo in doubt; 14),–
